Active and inactive are the calls of the source. The calls are words filed in the database; no cut-off is given here.
Assays:
[1] = system: Trypanosoma brucei rhodesiense; test: Antitrypanosomal activity against Trypanosoma rhodesiense infected in mouse assessed as increase in survival time by 30 days at 640 mg/kg relative to control; format: functional
[2] = system: Plasmodium berghei; test: Antimalarial activity against Plasmodium berghei infected in mouse; format: functional, organism-based
[3] = system: Trypanosoma brucei rhodesiense; test: Antitrypanosomal activity against Trypanosoma rhodesiense infected in mouse assessed as increase in mean survival time at 160 mg/kg relative to control; format: functional
[4] = system: Trypanosoma brucei rhodesiense; test: Antitrypanosomal activity against Trypanosoma rhodesiense infected in mouse assessed as increase in survival time by 30 days at 320 mg/kg relative to control; format: functional
[5] = system: Trypanosoma brucei rhodesiense; test: Antitrypanosomal activity against Trypanosoma rhodesiense infected in mouse assessed as increase in survival time by 30 days at 160 mg/kg relative to control; format: functional
[6] = system: Trypanosoma brucei rhodesiense; test: Antitrypanosomal activity against Trypanosoma rhodesiense infected in mouse assessed as increase in survival time by 30 days at 20 mg/kg relative to control; format: functional
[7] = system: Trypanosoma brucei rhodesiense; test: Antitrypanosomal activity against Trypanosoma rhodesiense infected in mouse assessed as increase in survival time by 30 days at 80 mg/kg relative to control; format: functional
[8] = system: Trypanosoma brucei rhodesiense; test: Antitrypanosomal activity against Trypanosoma rhodesiense infected in mouse assessed as increase in survival time by 30 days at 5 mg/kg relative to control; format: functional
[9] = system: Trypanosoma brucei rhodesiense; test: Antitrypanosomal activity against Trypanosoma rhodesiense infected in mouse assessed as increase in survival time by 30 days at 2.5 mg/kg relative to control; format: functional
[10] = system: Trypanosoma brucei rhodesiense; test: Antitrypanosomal activity against Trypanosoma rhodesiense infected in mouse assessed as increase in survival time by 30 days at 10 mg/kg relative to control; format: functional
[11] = system: Trypanosoma brucei rhodesiense; test: Antitrypanosomal activity against Trypanosoma rhodesiense infected in mouse assessed as increase in survival time by 30 days at 40 mg/kg relative to control; format: functional
[12] = system: Mus musculus; test: Acute toxicity in mouse infected with Trypanosoma rhodesiense assessed as death at 640 mg/kg; format: organism-based; set-up: dose 640 mg/kg; conditions: in vivo
[13] = system: Mus musculus; test: Acute toxicity in mouse infected with Trypanosoma rhodesiense assessed as death at 320 mg/kg; format: organism-based; set-up: dose 320 mg/kg; conditions: in vivo
[14] = system: Trypanosoma brucei rhodesiense; test: Antitrypanosomal activity against Trypanosoma rhodesiense infected in mouse assessed as increase in mean survival time at 80 mg/kg relative to control; format: functional
[15] = system: Trypanosoma brucei rhodesiense; test: Antitrypanosomal activity against Trypanosoma rhodesiense infected in mouse assessed as increase in mean survival time at 20 mg/kg relative to control; format: functional
[16] = system: Trypanosoma brucei rhodesiense; test: Antitrypanosomal activity against Trypanosoma rhodesiense infected in mouse assessed as increase in mean survival time at 40 mg/kg relative to control; format: functional

For [Cl-].[Cl-].c1cc([C+]2NCCN2)ccc1-c1ccc(-c2ccc([C+]3NCCN3)cc2)s1, the MST [1] was 3 days, the Activity [2] was “inactive” and the MST [3] was 1.6 days. The MST [4] was 2 days.

With N=C(N)c1ccc(/C=C/c2ccc(C(=N)N)cc2O)cc1 [HYDROXYSTILBAMIDINE] the MST [5] was 5 days, the MST [6] was 5 days and the MST [7] was 5 days. For the same compound, the MST [1] was 5 days, the MST [8] was 5 days and the MST [9] was 5 days. It also gave an MST [4] of 5 days, an MST [10] of 5 days and an MST [11] of 5 days.

For N=C(N)c1ccc(OCCCCCOc2ccc(C(=N)N)cc2)cc1 [PENTAMIDINE], the MST [5] was 5 days, the MST [6] was 5 days and the MST [7] was 5 days. It also gave an MST [1] of 5 days, an MST [8] of 5 days and an MST [9] of 4 days. The MST [4] was 5 days, the MST [10] was 5 days and the MST [11] was 5 days.

CC1CN[C+](c2ccc(-c3ccc(-c4ccc([C+]5NCC(C)N5)cc4)n3C)cc2)N1.[Cl-].[Cl-] (stereo not drawn) was tested, and the MST [5] was 5 days, the MST [6] was 3 days and the MST [7] was 5 days. The MST [1] was 5 days, the Activity [2] was “inactive” and the MST [4] was 5 days. For the same compound, the MST [11] was 4 days.

Work on Cl.Cl.N=C(N)c1ccc(-c2ccc(-c3ccc(C(=N)N)cc3)s2)cc1 yielded an MST [5] of 5 days, an MST [6] of 5 days and an MST [7] of 5 days. For the same compound, the MST [8] was 4 days, the Activity [2] was “inactive” and the MST [9] was 3 days. It also gave an MST [10] of 5 days and an MST [11] of 5 days.

In the case of Cn1c(-c2ccc([C+]3NCCCN3)cc2)ccc1-c1ccc([C+]2NCCCN2)cc1.[Cl-].[Cl-], the MST [5] is reported as 3 days, the MST [6] is reported as 3 days and the MST [7] is reported as 5 days. The Activity [2] was “inactive”, the Activity [12] was “Toxic” and the Activity [13] was “Toxic”. The MST [10] was 2 days and the MST [11] was 5 days.

N=C(N)c1ccc(-c2ccc(-c3ccc(C(=N)N)cc3)o2)cc1 [FURAMIDINE] showed an MST [5] of 5 days, an MST [6] of 5 days and an MST [7] of 5 days. The MST [1] was 5 days, the MST [8] was 5 days and the MST [9] was 4 days. For the same compound, the MST [4] was 5 days, the MST [10] was 5 days and the MST [11] was 5 days.

CC1CN[C+](c2ccc(-c3ccc(-c4ccc([C+]5NCC(C)N5)cc4)s3)cc2)N1.[Cl-].[Cl-] (stereo not drawn) gave an MST [5] of 2 days, an MST [14] of 3 days and an MST [1] of 4 days. For the same compound, the Activity [2] was “inactive”, the MST [4] was 4 days and the MST [15] was 1 days. It also gave an MST [16] of 1.2 days.

In the case of Cn1c(-c2ccc([C+]3NCCN3)cc2)ccc1-c1ccc([C+]2NCCN2)cc1.[Cl-].[Cl-], the MST [5] is reported as 5 days, the MST [6] is reported as 3 days and the MST [7] is reported as 4 days. The Activity [2] was “inactive”, the MST [10] was 2 days and the MST [11] was 4 days.

Cn1c(-c2ccc([C+](N)N)cc2)ccc1-c1ccc([C+](N)N)cc1.[Cl-].[Cl-] showed an MST [5] of 5 days, an MST [6] of 5 days and an MST [7] of 5 days. For the same compound, the MST [8] was 4 days, the Activity [2] was “inactive” and the MST [9] was 2 days. It also gave an MST [4] of 5 days, an MST [10] of 5 days and an MST [11] of 5 days.

[Cl-].[Cl-].c1cc([C+]2NCCCN2)ccc1-c1ccc(-c2ccc([C+]3NCCCN3)cc2)s1 showed an MST [5] of 4 days, an MST [6] of 3 days and an MST [7] of 4 days. The MST [1] was 5 days, the Activity [2] was “inactive” and the MST [4] was 5 days. It also gave an MST [10] of 2 days and an MST [11] of 4 days.

N=C(N)c1ccc(/C=C/c2ccc(C(=N)N)cc2)cc1 [STILBAMIDINE] showed an MST [5] of 5 days, an MST [6] of 5 days and an MST [7] of 5 days. The MST [1] was 5 days, the MST [8] was 5 days and the MST [9] was 5 days. The MST [4] was 5 days, the MST [10] was 5 days and the MST [11] was 5 days.
